Results reported in PubChem BioAssay (NCI).
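Where inhibition never reached the appropriate level, the endpoint shown equals the highest concentration tested. Otherwise, values were interpolated linearly from a five-concentration, 48-hour dose response in 96-well plates. TGI is the concentration that stops growth completely.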

Columns and labels:
Assay in all cases: NCI tumour cell line growth inhibition, 48 h
786-0 renal = test system: 786-0 renal
A498 renal = test system: A498 renal
A549 NSCLC = test system: A549 NSCLC
ACHN renal = test system: ACHN renal
CAKI-1 renal = test system: CAKI-1 renal
CCRF-CEM leukemia = test system: CCRF-CEM leukemia
COLO 205 colon = test system: COLO 205 colon
DU-145 prostate = test system: DU-145 prostate
EKVX NSCLC = test system: EKVX NSCLC
HCC-2998 colon = test system: HCC-2998 colon
HCT-116 colon = test system: HCT-116 colon
HCT-15 colon = test system: HCT-15 colon
HL-60(TB) leukemia = test system: HL-60(TB) leukemia
HOP-62 NSCLC = test system: HOP-62 NSCLC
HS 578T breast = test system: HS 578T breast
HT29 colon = test system: HT29 colon
IGROV1 ovarian = test system: IGROV1 ovarian
K-562 leukemia = test system: K-562 leukemia
KM12 colon = test system: KM12 colon
LOX IMVI melanoma = test system: LOX IMVI melanoma
M14 melanoma = test system: M14 melanoma
MALME-3M melanoma = test system: MALME-3M melanoma
MCF7 breast = test system: MCF7 breast
MDA-MB-231 breast = test system: MDA-MB-231 breast
MDA-MB-435 = test system: MDA-MB-435
MDA-N = test system: MDA-N
MOLT-4 leukemia = test system: MOLT-4 leukemia
NCI-H226 lung = test system: NCI-H226 lung
NCI-H23 lung = test system: NCI-H23 lung
NCI-H460 lung = test system: NCI-H460 lung
NCI-H522 lung = test system: NCI-H522 lung
NCI/ADR-RES ovarian = test system: NCI/ADR-RES ovarian
OVCAR-3 ovarian = test system: OVCAR-3 ovarian
OVCAR-4 ovarian = test system: OVCAR-4 ovarian
OVCAR-5 ovarian = test system: OVCAR-5 ovarian
OVCAR-8 ovarian = test system: OVCAR-8 ovarian
PC-3 prostate = test system: PC-3 prostate
RPMI-8226 leukemia = test system: RPMI-8226 leukemia
RXF 393 renal = test system: RXF 393 renal
SF-268 CNS = test system: SF-268 CNS
SF-295 CNS = test system: SF-295 CNS
SF-539 CNS = test system: SF-539 CNS
SK-MEL-28 melanoma = test system: SK-MEL-28 melanoma
SK-MEL-5 melanoma = test system: SK-MEL-5 melanoma
SK-OV-3 ovarian = test system: SK-OV-3 ovarian
SN12C renal = test system: SN12C renal
SNB-19 CNS = test system: SNB-19 CNS
SNB-75 CNS = test system: SNB-75 CNS
SR leukemia = test system: SR leukemia
SW-620 colon = test system: SW-620 colon
T-47D breast = test system: T-47D breast
TK-10 renal = test system: TK-10 renal
U251 CNS = test system: U251 CNS
UACC-257 melanoma = test system: UACC-257 melanoma
UACC-62 melanoma = test system: UACC-62 melanoma
UO-31 renal = test system: UO-31 renal

Measured: TGI

O=c1[nH]nc(Cc2ccccc2)n1C1CCCC1
> 100 µM: 786-0 renal | A498 renal | A549 NSCLC | ACHN renal | CAKI-1 renal | CCRF-CEM leukemia | COLO 205 colon | DU-145 prostate | EKVX NSCLC | HCC-2998 colon | HCT-116 colon | HCT-15 colon | HL-60(TB) leukemia | HOP-62 NSCLC | HS 578T breast | HT29 colon | IGROV1 ovarian | K-562 leukemia | KM12 colon | LOX IMVI melanoma | M14 melanoma | MALME-3M melanoma | MCF7 breast | MDA-MB-231 breast | MDA-MB-435 | MDA-N | MOLT-4 leukemia | NCI-H226 lung | NCI-H23 lung | NCI-H460 lung | NCI-H522 lung | NCI/ADR-RES ovarian | OVCAR-3 ovarian | OVCAR-4 ovarian | OVCAR-5 ovarian | OVCAR-8 ovarian | PC-3 prostate | RPMI-8226 leukemia | RXF 393 renal | SF-268 CNS | SF-295 CNS | SF-539 CNS | SK-MEL-28 melanoma | SK-MEL-5 melanoma | SK-OV-3 ovarian | SN12C renal | SNB-19 CNS | SNB-75 CNS | SR leukemia | SW-620 colon | T-47D breast | TK-10 renal | U251 CNS | UACC-257 melanoma | UACC-62 melanoma | UO-31 renal
